Measurements published in patent EP0093484A2, “Antibacterial monic acid derivatives” (BEECHAM GROUP PLC, priority 1982, dated 1983).
Values after ≈ are worked out from the molar mass of the structure shown.

What was measured:
M. suipneumoniae NB12 = assay: Anti-mycoplasmal activity, MIC in Friis broth agarose; assay type: cell-based; conditions: Mesomycoplasma hyopneumoniae, 144 h, Friis broth solidified with 0.9% agarose, 6 days incubation at 37°C, read-out: MIC
M. suipneumoniae JF 435 = assay: as above; assay type: cell-based; conditions: Mesomycoplasma hyopneumoniae, JF435, 144 h, Friis broth solidified with 0.9% agarose, 6 days incubation at 37°C, read-out: MIC
M. suipneumoniae HK(2) = assay: as above; assay type: cell-based; conditions: Mesomycoplasma hyopneumoniae, 144 h, Friis broth solidified with 0.9% agarose, 6 days incubation at 37°C, read-out: MIC
M. suipneumoniae MS16 = assay: as above; assay type: cell-based; conditions: Mesomycoplasma hyopneumoniae, 144 h, Friis broth solidified with 0.9% agarose, 6 days incubation at 37°C, read-out: MIC
[1] = test system: M. suipneumoniae PW/C/210; assay: as above; assay type: cell-based; conditions: Mesomycoplasma hyopneumoniae, 144 h, Friis broth solidified with 0.9% agarose, 6 days incubation at 37°C, read-out: MIC
M. suipneumoniae LABER = assay: as above; assay type: cell-based; conditions: Mesomycoplasma hyopneumoniae, 144 h, Friis broth solidified with 0.9% agarose, 6 days incubation at 37°C, read-out: MIC
M. suipneumoniae UCD 1 = assay: as above; assay type: cell-based; conditions: Mesomycoplasma hyopneumoniae, UCD1, 144 h, Friis broth solidified with 0.9% agarose, 6 days incubation at 37°C, read-out: MIC
M. suipneumoniae TAM 6N = assay: as above; assay type: cell-based; conditions: Mesomycoplasma hyopneumoniae, TAM6N, 144 h, Friis broth solidified with 0.9% agarose, 6 days incubation at 37°C, read-out: MIC
[2] = test system: M. suipneumoniae ATCC 25095; assay: as above; assay type: cell-based; conditions: Mesomycoplasma hyopneumoniae, ATCC25095, 144 h, Friis broth solidified with 0.9% agarose, 6 days incubation at 37°C, read-out: MIC
M. hyorhinis ATCC 23234 = assay: as above; assay type: cell-based; conditions: Mesomycoplasma hyorhinis, ATCC23234, 144 h, Friis broth solidified with 0.9% agarose, 6 days incubation at 37°C, read-out: MIC
M. bovis NCTC 10131 = assay: microbe, parasite or virus in culture; assay type: cell-based; conditions: NCTC10131, 144 h
[3] = test system: M. bovigenitalium ATCC 14173; assay: Anti-mycoplasmal activity, MIC in Friis broth agarose; assay type: cell-based; conditions: 144 h, Friis broth solidified with 0.9% agarose, 6 days incubation at 37°C, read-out: MIC
M. dispar NCTC 10125 = assay: as above; assay type: cell-based; conditions: 144 h, Friis broth solidified with 0.9% agarose, 6 days incubation at 37°C, read-out: MIC
M. pneumoniae ATCC 15492 = assay: as above; assay type: cell-based; conditions: Mycoplasmoides pneumoniae, ATCC15492, 144 h, Friis broth solidified with 0.9% agarose, 6 days incubation at 37°C, read-out: MIC
E. coli NCTC 10418 [4] = assay: Human bacteria, MIC by serial dilution in nutrient agar; assay type: cell-based; conditions: Escherichia coli, NCTC10418; E. coli NCTC 10418 (human panel); nutrient agar with 5% chocolated horse blood; 18 hours at 37°C; read-out: MIC
E. coli ESS = assay: as above; assay type: cell-based; conditions: Escherichia coli, nutrient agar with 5% chocolated horse blood, 18 hours at 37°C, read-out: MIC
P. mirabilis 889 = assay: as above; assay type: cell-based; conditions: Proteus mirabilis, nutrient agar with 5% chocolated horse blood, 18 hours at 37°C, read-out: MIC
K. aerogenes A = assay: as above; assay type: cell-based; conditions: Klebsiella aerogenes, nutrient agar with 5% chocolated horse blood, 18 hours at 37°C, read-out: MIC
Ps. aeruginosa 10662 = assay: as above; assay type: cell-based; conditions: Pseudomonas aeruginosa, nutrient agar with 5% chocolated horse blood, 18 hours at 37°C, read-out: MIC
[5] = test system: Pasteurella multocida 1633; assay: as above; assay type: cell-based; conditions: nutrient agar with 5% chocolated horse blood, 18 hours at 37°C, read-out: MIC
[6] = test system: Haemophilus influenzae Q1; assay: as above; assay type: cell-based; conditions: nutrient agar with 5% chocolated horse blood, 18 hours at 37°C, read-out: MIC
[7] = test system: Haemophilus influenzae Wy21; assay: as above; assay type: cell-based; conditions: nutrient agar with 5% chocolated horse blood, 18 hours at 37°C, read-out: MIC
[8] = test system: Neisseria catarrhalis 1502; assay: as above; assay type: cell-based; conditions: nutrient agar with 5% chocolated horse blood, 18 hours at 37°C, read-out: MIC
[9] = test system: Corynebacterium xerosis 9755; assay: as above; assay type: cell-based; conditions: nutrient agar with 5% chocolated horse blood, 18 hours at 37°C, read-out: MIC
Sarcina lutea 8340 = assay: as above; assay type: cell-based; conditions: Micrococcus luteus, nutrient agar with 5% chocolated horse blood, 18 hours at 37°C, read-out: MIC
Staph. aureus Russell = assay: as above; assay type: cell-based; conditions: Staphylococcus aureus, nutrient agar with 5% chocolated horse blood, 18 hours at 37°C, read-out: MIC
Staph. aureus W2827 = assay: as above; assay type: cell-based; conditions: Staphylococcus aureus, nutrient agar with 5% chocolated horse blood, 18 hours at 37°C, read-out: MIC
Strep. faecalis I = assay: as above; assay type: cell-based; conditions: Enterococcus faecalis, nutrient agar with 5% chocolated horse blood, 18 hours at 37°C, read-out: MIC
[10] = test system: Strep. pyogenes R80/421-A; assay: as above; assay type: cell-based; conditions: Streptococcus pyogenes, nutrient agar with 5% chocolated horse blood, 18 hours at 37°C, read-out: MIC
Strep. spp. 64/848-C = assay: as above; assay type: cell-based; conditions: nutrient agar with 5% chocolated horse blood, 18 hours at 37°C, read-out: MIC
Strep. pneumoniae CN33 = assay: as above; assay type: cell-based; conditions: Streptococcus pneumoniae, nutrient agar with 5% chocolated horse blood, 18 hours at 37°C, read-out: MIC
E. coli NCTC 10418 [11] = assay: Veterinary bacteria, MIC by two fold serial dilution in agar; conditions: Escherichia coli, NCTC10418, 18 h
Method: (§1) The activity of the compounds of the Examples against various organisms important in veterinary infections was determined using two fold serial dilutions in Diagnostic Sensitivity Test Agar inoculated with 10^4 organisms.

E. coli E1 = assay: as above; conditions: Escherichia coli, E1, 18 h
Method: as §1

S. typhimurium S18 = assay: as above; conditions: Salmonella enterica, TYPHIMURIUM, 18 h
Method: as §1

Bord. bronchiseptica B08 = assay: as above; conditions: Bordetella bronchiseptica, B08, 18 h
Method: as §1

Bord. bronchiseptica BO9 = assay: as above; conditions: Bordetella bronchiseptica, BO9, 18 h
Method: as §1

Past. multocida PA1 = assay: as above; conditions: Pasteurella multocida, PA1, 18 h
Method: as §1

Past. multocida PA2 = assay: as above; conditions: Pasteurella multocida, PA2, 18 h
Method: as §1

[12] = test system: Corynebacterium pyogenes CY1; assay: as above; conditions: CY1, 18 h
Method: as §1

[13] = test system: Staph. aureus B4 (pen. resistant); assay: as above; conditions: Staphylococcus aureus, 18 h
Method: as §1

[14] = test system: Staph. aureus 152 (pen. sens.); assay: as above; conditions: Staphylococcus aureus, 18 h
Method: as §1

Strep. dysgalactiae SPD1 = assay: as above; conditions: Streptococcus dysgalactiae, SPD1, 18 h
Method: as §1

CSc1ccc(COC(=O)C=C(C)CC2OCC(CC3OC3C(C)C(C)O)C(O)C2O)cc1 (stereo not drawn) [Example 1, p-Methylthiobenzyl monate A]
MIC (M. suipneumoniae NB12): 0.5 µg/mL (≈ 1.04 µM) | MIC (M. suipneumoniae JF 435): 0.5 µg/mL (≈ 1.04 µM) | MIC (M. suipneumoniae HK(2)): 0.5 µg/mL (≈ 1.04 µM) | MIC (M. suipneumoniae MS16): 0.25 µg/mL (≈ 0.52 µM) | MIC [1]: 0.25 µg/mL (≈ 0.52 µM) | MIC (M. suipneumoniae LABER): 0.25 µg/mL (≈ 0.52 µM) | MIC (M. suipneumoniae UCD 1): 0.5 µg/mL (≈ 1.04 µM) | MIC (M. suipneumoniae TAM 6N): 0.5 µg/mL (≈ 1.04 µM) | MIC [2]: 0.5 µg/mL (≈ 1.04 µM) | MIC (M. hyorhinis ATCC 23234): 0.25 µg/mL (≈ 0.52 µM) | MIC (M. bovis NCTC 10131): ≤ 0.01 µg/mL | MIC [3]: 0.025 µg/mL (≈ 0.052 µM) | MIC (M. dispar NCTC 10125): 0.1 µg/mL (≈ 0.208 µM) | MIC (M. pneumoniae ATCC 15492): 1 µg/mL (≈ 2.08 µM) | MIC (E. coli NCTC 10418 [4]): 100 µg/mL (≈ 208 µM) | MIC (E. coli ESS): 1 µg/mL (≈ 2.08 µM) | MIC (P. mirabilis 889): 100 µg/mL (≈ 208 µM) | MIC (K. aerogenes A): > 100 µg/mL | MIC (Ps. aeruginosa 10662): > 100 µg/mL | MIC [5]: 1 µg/mL (≈ 2.08 µM) | MIC [6]: 0.25 µg/mL (≈ 0.52 µM) | MIC [7]: 0.25 µg/mL (≈ 0.52 µM) | MIC [8]: 0.25 µg/mL (≈ 0.52 µM) | MIC [9]: > 100 µg/mL | MIC (Sarcina lutea 8340): > 100 µg/mL | MIC (Staph. aureus Russell): 0.5 µg/mL (≈ 1.04 µM) | MIC (Staph. aureus W2827): 0.5 µg/mL (≈ 1.04 µM) | MIC (Strep. faecalis I): 100 µg/mL (≈ 208 µM) | MIC [10]: 0.1 µg/mL (≈ 0.208 µM) | MIC (Strep. spp. 64/848-C): 0.5 µg/mL (≈ 1.04 µM) | MIC (Strep. pneumoniae CN33): 0.5 µg/mL (≈ 1.04 µM) | MIC (E. coli NCTC 10418 [11]): > 80 µg/mL | MIC (E. coli E1): > 80 µg/mL | MIC (S. typhimurium S18): > 80 µg/mL | MIC (Bord. bronchiseptica B08): 20 µg/mL (≈ 41.6 µM) | MIC (Bord. bronchiseptica BO9): 5 µg/mL (≈ 10.4 µM) | MIC (Past. multocida PA1): 0.156 µg/mL (≈ 0.325 µM) | MIC (Past. multocida PA2): 0.156 µg/mL (≈ 0.325 µM) | MIC [12]: > 80 µg/mL | MIC [13]: 0.156 µg/mL (≈ 0.325 µM) | MIC [14]: 0.156 µg/mL (≈ 0.325 µM) | MIC (Strep. dysgalactiae SPD1): 0.156 µg/mL (≈ 0.325 µM)
